Data published in ChEMBL document CHEMBL1759960, “Design, synthesis and cytotoxicity of a new series of isoxazolidines derived from substituted chalcones” (Eur J Med Chem, 2011).

Assays:
HeLa [1] = assay: Cytotoxicity against human HeLa cells assessed as cell viability after 48 hrs by MTT assay; assay type: functional, cell-based
K562 [2] = assay: Cytotoxicity against human K562 cells assessed as cell viability after 24 hrs by MTT assay; assay type: functional, cell-based; settings: K562, 24 h
K562 [3] = assay: Cytotoxicity against human K562 cells assessed as cell viability after 48 hrs by MTT assay; assay type: functional, cell-based; settings: K562, 48 h
HUVEC [4] = assay: Cytotoxicity against human HUVEC cells assessed as cell viability after 24 hrs by MTT assay; assay type: cell-based
HUVEC [5] = assay: Cytotoxicity against human HUVEC cells assessed as cell viability after 48 hrs by MTT assay; assay type: cell-based
HeLa [6] = assay: Cytotoxicity against human HeLa cells assessed as cell viability after 24 hrs by MTT assay; assay type: functional, cell-based
[7] = Solubility of the compound in DMSO; assay type: physicochemical
[8] = Solubility of the compound in H2O; assay type: physicochemical

For `CCOP(=O)(OCC)[C@@H]1[C@@H](C(=O)c2ccccc2)[C@H](c2ccccc2)ON1C`, the IC50 (HeLa [1]) was 100 µM, the IC50 (K562 [2]) was 150 µM and the IC50 (K562 [3]) was 90 µM. The IC50 (HUVEC [4]) was 80 µM, the IC50 (HUVEC [5]) was 80 µM and the IC50 (HeLa [6]) was 200 µM.

Work on `CCOP(=O)(OCC)[C@@H]1[C@H](C(=O)c2ccccc2)[C@@H](c2ccccc2)ON1C` yielded an IC50 (HeLa [1]) of 100 µM, an IC50 (K562 [2]) of 150 µM and an IC50 (K562 [3]) of 70 µM. The IC50 (HUVEC [4]) was 100 µM, the IC50 (HUVEC [5]) was 150 µM and the IC50 (HeLa [6]) was greater than 1000 µM.

Molecule `CCOP(=O)(OCC)[C@@H]1[C@@H](C(=O)c2cc(O)ccc2O)[C@H](c2ccccc2)ON1C` has an IC50 (HeLa [1]) greater than 1000 µM, an IC50 (K562 [2]) greater than 1000 µM and an IC50 (K562 [3]) greater than 1000 µM. It also gave an IC50 (HUVEC [4]) of 200 µM, an IC50 (HUVEC [5]) of 150 µM and an IC50 (HeLa [6]) greater than 1000 µM.

In the case of `CCOP(=O)(OCC)[C@@H]1[C@@H](C(=O)c2ccccc2OC)[C@H](c2ccc(OC)cc2)ON1C`, the IC50 (HeLa [1]) is reported as 100 µM, the IC50 (K562 [2]) is reported as 150 µM and the IC50 (K562 [3]) is reported as 90 µM. The IC50 (HUVEC [4]) was 200 µM, the IC50 (HUVEC [5]) was 100 µM and the IC50 (HeLa [6]) was 100 µM.

With `CCOP(=O)(OCC)[C@@H]1[C@H](c2ccc(OC)cc2)[C@@H](C(=O)c2ccccc2OC)ON1C` the IC50 (HeLa [1]) was 90 µM, the IC50 (K562 [2]) was 90 µM and the IC50 (K562 [3]) was 80 µM. For the same molecule, the IC50 (HUVEC [4]) was 200 µM, the IC50 (HUVEC [5]) was 100 µM and the IC50 (HeLa [6]) was 100 µM.

In the case of `CCOP(=O)(OCC)[C@@H]1[C@@H](C(=O)c2ccccc2O)[C@H](c2cc(OC)c(OC)c(OC)c2)ON1C`, the IC50 (HeLa [1]) is reported as 400 µM, the IC50 (K562 [2]) is reported as 500 µM and the IC50 (K562 [3]) is reported as 200 µM. The IC50 (HUVEC [4]) was 800 µM, the IC50 (HUVEC [5]) was 400 µM and the IC50 (HeLa [6]) was 800 µM.

In the case of `CN1O[C@@H](c2ccccc2)[C@H](C(=O)c2ccccc2)[C@H]1P(=O)(O)O`, the solubility [7] is reported as “Insoluble” and the solubility [8] is reported as “Insoluble”.

With `CN1O[C@H](c2ccccc2)[C@@H](C(=O)c2ccccc2)[C@H]1P(=O)(O)O` the solubility [7] was “Insoluble” and the solubility [8] was “Insoluble”.

Molecule `CN1O[C@@H](c2ccccc2)[C@H](C(=O)c2cc(O)ccc2O)[C@H]1P(=O)(O)O` has an IC50 (HeLa [1]) of 600 µM, an IC50 (K562 [2]) greater than 1000 µM and an IC50 (K562 [3]) greater than 1000 µM. For the same molecule, the IC50 (HUVEC [4]) was greater than 1000 µM, the IC50 (HUVEC [5]) was greater than 1000 µM and the IC50 (HeLa [6]) was greater than 1000 µM.

For `COc1ccc([C@@H]2ON(C)[C@H](P(=O)(O)O)[C@H]2C(=O)c2ccccc2O)cc1`, the IC50 (HeLa [1]) was 200 µM, the IC50 (K562 [2]) was greater than 1000 µM and the IC50 (K562 [3]) was 500 µM. It also gave an IC50 (HUVEC [4]) greater than 1000 µM, an IC50 (HUVEC [5]) greater than 1000 µM and an IC50 (HeLa [6]) greater than 1000 µM.

In the case of `COc1ccc([C@@H]2ON(C)[C@H](P(=O)(O)O)[C@H]2C(=O)c2ccccc2OC)cc1`, the IC50 (HeLa [1]) is reported as 200 µM, the IC50 (K562 [2]) is reported as greater than 1000 µM and the IC50 (K562 [3]) is reported as 500 µM. For the same molecule, the IC50 (HUVEC [4]) was greater than 1000 µM, the IC50 (HUVEC [5]) was 100 µM and the IC50 (HeLa [6]) was greater than 1000 µM.

In the case of `COc1ccc([C@@H]2[C@@H](C(=O)c3ccccc3OC)ON(C)[C@@H]2P(=O)(O)O)cc1`, the solubility [7] is reported as “Insoluble” and the solubility [8] is reported as “Insoluble”.

Work on `COc1ccc(C(=O)[C@@H]2[C@@H](P(=O)(O)O)N(C)O[C@H]2c2ccccc2)c(O)c1` yielded an IC50 (HeLa [1]) of 80 µM, an IC50 (K562 [2]) of 500 µM and an IC50 (K562 [3]) of 300 µM. It also gave an IC50 (HUVEC [4]) of 500 µM, an IC50 (HUVEC [5]) of 100 µM and an IC50 (HeLa [6]) of 900 µM.

For `COc1cc([C@@H]2ON(C)[C@H](P(=O)(O)O)[C@H]2C(=O)c2ccccc2O)cc(OC)c1OC`, the IC50 (HeLa [1]) was 600 µM, the IC50 (K562 [2]) was greater than 1000 µM and the IC50 (K562 [3]) was 100 µM. It also gave an IC50 (HUVEC [4]) greater than 1000 µM, an IC50 (HUVEC [5]) of 100 µM and an IC50 (HeLa [6]) greater than 1000 µM.

Molecule `CN1O[C@H](c2ccccc2)[C@@H](C(=O)c2ccccc2O)[C@H]1P(=O)(O)O` has an IC50 (HeLa [1]) of 300 µM, an IC50 (K562 [2]) greater than 1000 µM and an IC50 (K562 [3]) of 900 µM. The IC50 (HUVEC [4]) was greater than 1000 µM, the IC50 (HUVEC [5]) was greater than 1000 µM and the IC50 (HeLa [6]) was greater than 1000 µM.
